In patent US20110143948A1, “MOLECULAR SIGNATURES AND BIOMARKERS ASSOCIATED WITH MELANOMA AND METHODS OF USE THEREOF” (priority 2008, published 2011):

Test system: ncRNAs (SEQ ID NO 28-89)
Assay: ncRNA arrays of melanocytes, keratinocytes, normal skin, melanoma cell lines and patient samples
Set-up: species or system human
Conditions: for ncRNA array expression, patient 2: melanoma patient 2 sample compared to normal skin; for ncRNA array expression, patient 3: melanoma patient 3 sample compared to normal skin; for ncRNA array expression, patient 4: melanoma patient 4 sample compared to normal skin; for ncRNA array expression, patient 5: melanoma patient 5 sample compared to normal skin; for ncRNA array expression, patient 6: melanoma patient 6 sample compared to normal skin; for ncRNA array expression, patient 7: melanoma patient 7 sample compared to normal skin; for ncRNA array expression, patient 8: melanoma patient 8 sample compared to normal skin; for ncRNA array expression, patient 9: melanoma patient 9 sample compared to normal skin; for ncRNA array expression, patient 10: melanoma patient 10 sample compared to normal skin; for ncRNA array expression, patient 19: melanoma patient 19 sample compared to normal skin; for ncRNA array expression, patient 20: melanoma patient 20 sample compared to normal skin; for ncRNA array expression, patient 21: melanoma patient 21 sample compared to normal skin; for ncRNA array expression, patient 22: melanoma patient 22 sample compared to normal skin; for ncRNA array expression, patient 23: melanoma patient 23 sample compared to normal skin; for ncRNA array expression, patient 24: melanoma patient 24 sample compared to normal skin; for ncRNA array expression, patient 25: melanoma patient 25 sample compared to normal skin; for ncRNA array expression, patient 26: melanoma patient 26 sample compared to normal skin; for ncRNA array expression, patient 27: melanoma patient 27 sample compared to normal skin; for ncRNA array expression, patient 28: melanoma patient 28 sample compared to normal skin; for ncRNA array expression, patient 29: melanoma patient 29 sample compared to normal skin; for ncRNA array expression, patient 30: melanoma patient 30 sample compared to normal skin
Method in brief: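 Total RNA from melanocytes, keratinocytes, normal human skin, melanoma cell lines and melanoma patient samples was profiled on an array of >10,000 putative (>200 nt) human and mouse ncRNAs plus RefSeq mRNA probes. Expression was compared with melanocytes or normal skin, keratinocyte signatures were subtracted, and hits were validated by qRT-PCR and Northern blot.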

| Substance | ncRNA array expression, patient 2 | ncRNA array expression, patient 3 | ncRNA array expression, patient 4 | ncRNA array expression, patient 5 | ncRNA array expression, patient 6 | ncRNA array expression, patient 7 | ncRNA array expression, patient 8 | ncRNA array expression, patient 9 | ncRNA array expression, patient 10 | ncRNA array expression, patient 19 | ncRNA array expression, patient 20 | ncRNA array expression, patient 21 | ncRNA array expression, patient 22 | ncRNA array expression, patient 23 | ncRNA array expression, patient 24 | ncRNA array expression, patient 25 | ncRNA array expression, patient 26 | ncRNA array expression, patient 27 | ncRNA array expression, patient 28 | ncRNA array expression, patient 29 | also measured |
| --- | --- | --- | --- | --- | --- | --- | --- | --- | --- | --- | --- | --- | --- | --- | --- | --- | --- | --- | --- | --- | --- |
| SEQ ID NO 55 (CCTCTCCCCTTCTTGCAAAAAATATTCTATATTCAAGTTTAGGAGAAAACAGAATACTTG; listed as DNA, chemistry not given here; listed as Homo sapiens) | −1.54 | −1.638 | −1.747 | −1.565 | −1.135 | −1.9789 | −1.065 | −2.029 | −1.191 | −1.029 | −1.812 | −2.321 | −1.439 | −1.275 | −1.478 | −2.11 | −2.186 | −2.019 | −2.043 | −2.155 | ncRNA array expression, patient 30: −0.5021 |
| SEQ ID NO 56 (AAAAAATGAGGCAATCTCATCCCGAAACTATTTAAAACTACTCTCCTCTCTCTTGATAAA; listed as DNA, chemistry not given here; listed as Homo sapiens) | −2.014 | −1.535 | −1.64 | −1.4872 | −1.129 | −1.282 | −1.314 | −1.818 | −2.922 | −1.228 | −1.698 | −1.986 | −1.277 | −1.277 | −1.273 | −2.407 | −2.501 | −1.97 | −1.952 | −1.912 | ncRNA array expression, patient 30: −0.5599 |
| SEQ ID NO 57 (TTGTTGTTTTGGGAGATACCCTGTTTAGCCTGAAAGGATTGAGATACTGTAATTGCTATG; listed as DNA, chemistry not given here; listed as Homo sapiens) | 1.808 | 2.081 | 1.613 | 2.211 | 1.68 | 0.6099 | 1.985 | 0.645 | 0.5023 | 0.2628 | 0.1922 | 0.9386 | 1.473 | 1.122 | 0.5436 | 1.559 | 1.989 | 1.446 | 1.064 | 0.4459 | ncRNA array expression, patient 30: −0.5305 |
| SEQ ID NO 58 (ATTTATTTGACTCTAAAATGACAATATAACAACTATAAGGAATTGATATGATGTCCTTAC; listed as DNA, chemistry not given here; listed as Homo sapiens) | −1.675 | −1.723 | −0.4325 | −1.707 | −1.802 | −1.2619 | −1.825 | −1.569 | −1.223 | −1.471 | −1.134 | −1.719 | −1.28 | −1.756 | −1.757 | −1.52 | −1.463 | −1.595 | −1.708 | −1.543 | ncRNA array expression, patient 30: −1.631 |
| SEQ ID NO 59 (TGTGCAGCAGTATCAAAGGTCCTTAAATTCTCAACAATGAAGGAAAAACAAAAACCCATT; listed as DNA, chemistry not given here; listed as Homo sapiens) | −0.9339 | −1.02 | −1.168 | −1.255 | −1.212 | −0.9325 | −0.9937 | −1.258 | −0.9688 | −1.202 | −1.14 | −1.263 | −0.5383 | −1.165 | −1.154 | −0.9916 | −0.8776 | −1.161 | −1.232 | −1.077 | ncRNA array expression, patient 30: −1.04 |
| SEQ ID NO 60 (ACTAACAGCACTGGAGGGTGTAGTGTTTCCTACTTTATGGATGAGTGTACTGTGGGCTTC; listed as DNA, chemistry not given here; listed as Homo sapiens) | 2.776 | 2.279 | 2.327 | 0.8655 | −1.218 | 2.958 | 0.3154 | 1.739 | 2.002 | 0.3888 | 2.119 | 0.7491 | 3.236 | 1.416 | 1.295 | 1.226 | 1.537 | 1.485 | 0.6983 | 1.398 | ncRNA array expression, patient 30: 0.02973 |
| SEQ ID NO 61 (CATACATTGCCCTCACTAATCAATGGACATTTCAGCATTTCATTACTAATTTTGAGAGAA; listed as DNA, chemistry not given here; listed as Homo sapiens) | 1.244 | 1.117 | 1.12 | 3.917 | 0.992 | 2.069 | 1.86 | 1.694 | 3.678 | 0.6865 | −0.03568 | 1.984 | −0.1143 | 0.5527 | 3.802 | 2.349 | 2.817 | 1.264 | 2.585 | 3.112 | ncRNA array expression, patient 30: 0.254 |
| SEQ ID NO 62 (AATCGTTAATATCATTGATATTAAGTAATTTCCCCACTCTGAGTGAATACTTTGATGATG; listed as DNA, chemistry not given here; listed as Homo sapiens) | 1.565 | 1.466 | 3.47 | 1.994 | 0.5751 | 2.152 | 0.2609 | 0.5801 | 1.264 | 1.414 | 1.836 | 0.6984 | 0.4968 | −0.5784 | 3.5 | 3.363 | 2.394 | 1.855 | 1.418 | 1.3702 | ncRNA array expression, patient 30: −1.545 |
